US20230181768A1, “TISSUE-TARGETING COMPLEX” (PHARMPUR GMBH, priority 2017, published 2023)
Entries after “also recorded” stand apart in the source; their conditions may differ. Read-outs that look alike come from different tables or passages of the source.

How the values were obtained:
[1] = system: ILM model substrate (silk granules); conditions: for Ratio λmax with MS and reference 632-635 nm: 632 nm (7a), 634 nm (7b, 7d), 635 nm (7c); for binding to the model substrate (in words): UV/vis, before and after treatment with model substrate
Protocol: To examine the binding of various dyes to the ILM model substrate, UV/vis measurements of the dyes Brilliant Blue G (BBG), compounds 7a-d, and Indocyanine green (ICG) were performed at various concentrations both before and after treatment with the model substrate. The aim of these measurements is to compare the binding strength of the individual dyes.
Stock solutions of the dyes with a concentration of 5 mg/mL were prepared using phosphate-buffered saline (PBS) at physiological pH 7.4.
To ensure measurement is as accurate as possible, the dye-model substrate solutions and the references were not prepared separately, but likewise used as stock solutions.
Subsequently, 6 mg of ILM model substrate plus 6 mL of dye solution and a reference solution comprising only 6 mL of dye solution were stirred for exactly 10 minutes and then centrifuged together for 8 minutes at 6000 rpm. The solutions were photographed and the carefully decanted supernatants analyzed by UV/vis spectroscopy. The ratios of the absorption maxima λmax with the model substrate to the absorption maximum λmax of the reference were calculated. This allowed the binding strengths of the individual dyes to be compared.

[2] = Solubility / precipitation of dye in phosphate-buffered saline; type: physicochemical; conditions: PBS
Excerpt: Indocyanine green is one of the most important dyes in chromovitrectomy, particularly in the field of ILM peeling. The dye does, however, give rise to some problems and also to handling difficulties. Although it has long since been used for staining the inner limiting membrane and epiretinal membranes, studies have shown the dye to have numerous disadvantages.

| SMILES | Ratio λmax with MS and reference 588 nm ([1]; 0.005 mg/mL in PBS pH 7.4) | Ratio λmax with MS and reference 632-635 nm ([1]; 0.005 mg/mL in PBS pH 7.4) | Ratio λmax with MS and reference 588 nm ([1]; 0.01 mg/mL in PBS pH 7.4) | Ratio λmax with MS and reference 632-635 nm ([1]; 0.01 mg/mL in PBS pH 7.4) | Ratio λmax with MS and reference 588 nm ([1]; 0.02 mg/mL in PBS pH 7.4) | Ratio λmax with MS and reference 632-635 nm ([1]; 0.02 mg/mL in PBS pH 7.4) | Ratio λmax with MS and reference 588 nm ([1]; 0.04 mg/mL in PBS pH 7.4) | Ratio λmax with MS and reference 632-635 nm ([1]; 0.04 mg/mL in PBS pH 7.4) | Ratio λmax with MS and reference 588 nm ([1]; 0.08 mg/mL in PBS pH 7.4) | Ratio λmax with MS and reference 632-635 nm ([1]; 0.08 mg/mL in PBS pH 7.4) | Ratio λmax with MS and reference 588 nm ([1]; 0.16 mg/mL in PBS pH 7.4) | Ratio λmax with MS and reference 632-635 nm ([1]; 0.16 mg/mL in PBS pH 7.4) | binding to the model substrate (in words) [1] | further results |
| --- | --- | --- | --- | --- | --- | --- | --- | --- | --- | --- | --- | --- | --- | --- |
| CCCC[N+](C)(C)CCCNc1ccc(NCCC[N+](C)(C)CCCC)c2c1C(=O)c1ccccc1C2=O [7a, N,N′=(((9,10-dioxo-9,10-dihydroanthracene-1,4-diyl)bis(azanediyl))bis(propane-3,1-diy1))bis(N,N-dimethylbutan-1-aminium) bromide] | 54% | 54% | 52% | 52% | 54% | 55% | 57% | 58% | 67% | 69% | 76% | 78% | – | – |
| CCCCCCCC[N+](C)(C)CCCNc1ccc(NCCC[N+](C)(C)CCCCCCCC)c2c1C(=O)c1ccccc1C2=O [7b, N,N′-(((9,10-dioxo-9,10-dihydroanthracene-1,4-diyl)bis(azanediyl))bis(propane-3,1-diyl))bis(N,N-dimethyloctan-1-aminium) bromide] | 11% | 9% | 10% | 8% | 6% | 6% | 8% | 8% | 18% | 19% | 32% | 34% | – | – |
| CCCCCCCCCC[N+](C)(C)CCCNc1ccc(NCCC[N+](C)(C)CCCCCCCCCC)c2c1C(=O)c1ccccc1C2=O [7c, N,N′=(((9,10-dioxo-9,10-dihydroanthracene-1,4-diyl)bis(azanediyl))bis(propane-3,1-diyl))bis(N,N-dimethyldecan-1-aminium) Bromide] | 48% | 37% | 21% | 17% | 7% | 7% | 4% | 5% | 8% | 10% | 13% | 17% | – | – |
| CCCCCCCCCCCC[N+](C)(C)CCCNc1ccc(NCCC[N+](C)(C)CCCCCCCCCCCC)c2c1C(=O)c1ccccc1C2=O [7d, N,N′(((9,10-dioxo-9,10-dihydroanthracene-1,4-diyl)bis(azanediyl))bis(propane-3,1-diyl))bis(N,N-dimethyldodecan-1-aminium) Bromide] | 12% | 13% | 7% | 8% | 3% | 4% | 3% | 3% | 1% | 2% | 18% | 18% | – | – |
| CCOc1ccc(Nc2ccc(/C(=C3C=C/C(=[N+](/CC)Cc4cccc(S(=O)(=O)[O-])c4)C=C/3C)c3ccc(N(CC)Cc4cccc(S(=O)(=O)[O-])c4)cc3C)cc2)cc1.[Na+] [BBG, Brilliant Blue G, reference compound] | – | – | – | – | – | – | – | – | – | – | – | – | good binding | binding of the dye ([1]; 0.005 mg/mL in PBS pH 7.4): 76%; Ratio λmax with MS and reference ([1]; 0.005 mg/mL in PBS pH 7.4, maximum about 585 nm): 24%; Ratio λmax with MS and reference ([1]; 0.01 mg/mL in PBS pH 7.4, maximum about 585 nm): 32%; Ratio λmax with MS and reference ([1]; 0.02 mg/mL in PBS pH 7.4, maximum about 585 nm): 44%; Ratio λmax with MS and reference ([1]; 0.04 mg/mL in PBS pH 7.4, maximum about 585 nm): 48%; binding of the dye ([1]; 0.08 mg/mL in PBS pH 7.4): 48%; Ratio λmax with MS and reference ([1]; 0.08 mg/mL in PBS pH 7.4, maximum about 585 nm): 62% |
| CC1(C)C(/C=C/C=C/C=C/C=C2\N(CCCCS(=O)(=O)O)c3ccc4ccccc4c3C2(C)C)=[N+](CCCCS(=O)(=O)[O-])c2ccc3ccccc3c21 [ICG, Indocyanine green, reference compound] | – | – | – | – | – | – | – | – | – | – | – | – | positive binding | solubility in saline solutions / phosphate-buffered saline [2]: poor solubility; also recorded: causes the compound to precipitate; Ratio λmax with MS and reference ([1]; 0.005 mg/mL in double-distilled water, 779/780 nm): 47%; Ratio λmax with MS and reference ([1]; 0.01 mg/mL in double-distilled water, 779/780 nm): 95%; Ratio λmax with MS and reference ([1]; 0.02 mg/mL in double-distilled water, 779/780 nm): 42%; Ratio λmax with MS and reference ([1]; 0.04 mg/mL in double-distilled water, 779/780 nm): 85% |
